Residues, ends and D or L forms follow the SMILES beside them.
Target: Plasminogen (Homo sapiens, UniProt P00747)
Experiment: Inhibition of human plasmin using Ac-RM(O2)YR-pNA as substrate after 30 mins

Sequence of Plasminogen (P00747 97-580 limits assumed): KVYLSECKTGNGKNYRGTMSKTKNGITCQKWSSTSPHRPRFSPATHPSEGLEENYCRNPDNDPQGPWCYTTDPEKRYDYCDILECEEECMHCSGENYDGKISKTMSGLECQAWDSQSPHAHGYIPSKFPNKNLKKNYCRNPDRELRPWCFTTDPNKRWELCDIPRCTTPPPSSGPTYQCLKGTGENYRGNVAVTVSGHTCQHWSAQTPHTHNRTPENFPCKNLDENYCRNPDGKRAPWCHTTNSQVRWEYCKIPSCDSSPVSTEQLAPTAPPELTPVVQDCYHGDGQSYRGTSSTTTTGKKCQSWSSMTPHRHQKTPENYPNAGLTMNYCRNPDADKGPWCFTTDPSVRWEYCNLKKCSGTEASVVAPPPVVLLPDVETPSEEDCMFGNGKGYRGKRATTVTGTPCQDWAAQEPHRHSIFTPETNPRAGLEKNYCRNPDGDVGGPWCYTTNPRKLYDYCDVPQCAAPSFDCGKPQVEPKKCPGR
Sequence of Plasminogen (P00747 581-810 limits assumed): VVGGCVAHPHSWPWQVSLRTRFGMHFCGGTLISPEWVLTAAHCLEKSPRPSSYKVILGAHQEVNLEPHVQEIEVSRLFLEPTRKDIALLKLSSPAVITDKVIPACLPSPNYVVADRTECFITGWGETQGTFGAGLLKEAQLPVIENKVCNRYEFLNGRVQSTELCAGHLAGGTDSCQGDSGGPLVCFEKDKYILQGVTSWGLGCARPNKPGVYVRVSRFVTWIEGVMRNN

SMILES	Ki [nM]
CC[C@H](C)[C@@H]1NC(=O)[C@@H]2CCCN2C(=O)[C@@H]2CCCN2C(=O)[C@H](CCCCN)NC(=O)[C@H](CO)NC(=O)[C@H](CCCNC(=N)N)NC(=O)[C@H](Cc2ccc(O)cc2)NC(=O)[C@@H]2CSSC[C@H](NC1=O)C(=O)N[C@@H](Cc1ccccc1)C(=O)N1CCC[C@H]1C(=O)N[C@@H](CC(=O)O)C(=O)NCC(=O)N[C@@H](CCCNC(=N)N)C(=O)N2 (HELM PEPTIDE1{C.F.P.D.G.R.C.Y.R.S.K.P.P.I}$PEPTIDE1,PEPTIDE1,1:R3-7:R3|PEPTIDE1,PEPTIDE1,1:R1-14:R2$$$V2.0)	8.3
N=C(N)NCCC[C@@H]1NC(=O)CNC(=O)[C@H](CC(=O)O)NC(=O)[C@@H]2CCCN2C(=O)[C@H](Cc2ccccc2)NC(=O)[C@@H]2CSSC[C@H](NC1=O)C(=O)N[C@@H](Cc1ccc(O)cc1)C(=O)N[C@@H](CCCCN)C(=O)N[C@@H](CO)C(=O)N[C@@H](CCCCN)C(=O)N1CCC[C@H]1C(=O)N1CCC[C@H]1C(=O)N[C@@H](CCC(N)=O)C(=O)N2 (HELM PEPTIDE1{C.F.P.D.G.R.C.Y.K.S.K.P.P.Q}$PEPTIDE1,PEPTIDE1,1:R3-7:R3|PEPTIDE1,PEPTIDE1,1:R1-14:R2$$$V2.0)	1.8
N=C(N)NCCC[C@@H]1NC(=O)CNC(=O)[C@H](CC(=O)O)NC(=O)[C@@H]2CCCN2C(=O)[C@H](Cc2ccccc2)NC(=O)[C@@H]2CSSC[C@H](NC1=O)C(=O)N[C@@H](Cc1ccc(O)cc1)C(=O)N[C@@H](CCCCN)C(=O)N[C@@H](CO)C(=O)N[C@@H](CCCCN)C(=O)N1CCC[C@H]1C(=O)N1CCC[C@H]1C(=O)N[C@@H](CCCNC(=N)N)C(=O)N2 (HELM PEPTIDE1{C.F.P.D.G.R.C.Y.K.S.K.P.P.R}$PEPTIDE1,PEPTIDE1,1:R3-7:R3|PEPTIDE1,PEPTIDE1,1:R1-14:R2$$$V2.0)	4.7
N=C(N)NCCC[C@@H]1NC(=O)CNC(=O)[C@H](CC(=O)O)NC(=O)[C@@H]2CCCN2C(=O)[C@H](Cc2ccccc2)NC(=O)[C@@H]2CSSC[C@H](NC1=O)C(=O)N[C@@H](Cc1ccc(O)cc1)C(=O)N[C@@H](CCCCN)C(=O)N[C@@H](CO)C(=O)N[C@@H](CCCCN)C(=O)N1CCC[C@H]1C(=O)N1CCC[C@H]1C(=O)N[C@@H](CCCCN)C(=O)N2 (HELM PEPTIDE1{C.F.P.D.G.R.C.Y.K.S.K.P.P.K}$PEPTIDE1,PEPTIDE1,1:R3-7:R3|PEPTIDE1,PEPTIDE1,1:R1-14:R2$$$V2.0)	2.5
N=C(N)NCCC[C@@H]1NC(=O)CNC(=O)[C@H](CC(=O)O)NC(=O)[C@@H]2CCCN2C(=O)[C@H](Cc2ccccc2)NC(=O)[C@@H]2CSSC[C@H](NC1=O)C(=O)N[C@@H](Cc1ccc(O)cc1)C(=O)N[C@@H](CCCCN)C(=O)N[C@@H](CO)C(=O)N[C@@H](CCCCN)C(=O)N1CCC[C@H]1C(=O)N1CCC[C@H]1C(=O)N[C@@H](CC(N)=O)C(=O)N2 (HELM PEPTIDE1{C.F.P.D.G.R.C.Y.K.S.K.P.P.N}$PEPTIDE1,PEPTIDE1,1:R3-7:R3|PEPTIDE1,PEPTIDE1,1:R1-14:R2$$$V2.0)	0.66
CC[C@H](C)[C@@H]1NC(=O)[C@@H]2CCCN2C(=O)[C@@H]2CCCN2C(=O)[C@H]([C@@H](C)CC)NC(=O)[C@H](CO)NC(=O)[C@H](CCCNC(=N)N)NC(=O)[C@H]([C@@H](C)O)NC(=O)[C@@H]2CSSC[C@H](NC1=O)C(=O)N[C@@H](Cc1ccccc1)C(=O)N1CCC[C@H]1C(=O)N[C@@H](CC(=O)O)C(=O)NCC(=O)N[C@@H](CCCNC(=N)N)C(=O)N2 (HELM PEPTIDE1{C.F.P.D.G.R.C.T.R.S.I.P.P.I}$PEPTIDE1,PEPTIDE1,1:R3-7:R3|PEPTIDE1,PEPTIDE1,1:R1-14:R2$$$V2.0)	120
CC[C@H](C)[C@@H]1NC(=O)[C@@H]2CCCN2C(=O)[C@@H]2CCCN2C(=O)[C@H](CCCCN)NC(=O)[C@H](CO)NC(=O)[C@H](CCCCN)NC(=O)[C@H](Cc2ccccc2)NC(=O)[C@@H]2CSSC[C@H](NC1=O)C(=O)N[C@@H](Cc1ccccc1)C(=O)N1CCC[C@H]1C(=O)N[C@@H](CC(=O)O)C(=O)NCC(=O)N[C@@H](CCCNC(=N)N)C(=O)N2 (HELM PEPTIDE1{C.F.K.S.K.P.P.I.C.F.P.D.G.R}$PEPTIDE1,PEPTIDE1,1:R3-9:R3|PEPTIDE1,PEPTIDE1,1:R1-14:R2$$$V2.0)	0.61
CC[C@H](C)[C@@H]1NC(=O)[C@@H]2CCCN2C(=O)[C@@H]2CCCN2C(=O)[C@H](CCCNC(=N)N)NC(=O)[C@H](CO)NC(=O)[C@H](CCCCN)NC(=O)[C@H]([C@@H](C)O)NC(=O)[C@@H]2CSSC[C@H](NC1=O)C(=O)N[C@@H](Cc1ccccc1)C(=O)N1CCC[C@H]1C(=O)N[C@@H](CC(=O)O)C(=O)NCC(=O)N[C@@H](CCCNC(=N)N)C(=O)N2 (HELM PEPTIDE1{C.F.P.D.G.R.C.T.K.S.R.P.P.I}$PEPTIDE1,PEPTIDE1,1:R3-7:R3|PEPTIDE1,PEPTIDE1,1:R1-14:R2$$$V2.0)	2
CC[C@H](C)[C@@H]1NC(=O)[C@@H]2CCCN2C(=O)[C@@H]2CCCN2C(=O)[C@H](CCCNC(=N)N)NC(=O)[C@H](CO)NC(=O)[C@H](CCCNC(=N)N)NC(=O)[C@H](Cc2ccc(O)cc2)NC(=O)[C@@H]2CSSC[C@H](NC1=O)C(=O)N[C@@H](Cc1ccccc1)C(=O)N1CCC[C@H]1C(=O)N[C@@H](CC(=O)O)C(=O)NCC(=O)N[C@@H](CCCNC(=N)N)C(=O)N2 (HELM PEPTIDE1{C.F.P.D.G.R.C.Y.R.S.R.P.P.I}$PEPTIDE1,PEPTIDE1,1:R3-7:R3|PEPTIDE1,PEPTIDE1,1:R1-14:R2$$$V2.0)	16
CC[C@H](C)[C@@H]1NC(=O)[C@@H]2CCCN2C(=O)[C@@H]2CCCN2C(=O)[C@H](CCCCN)NC(=O)[C@H](CO)NC(=O)[C@H](CCCCN)NC(=O)[C@H](Cc2c[nH]c3ccccc23)NC(=O)[C@@H]2CSSC[C@H](NC1=O)C(=O)N[C@@H](Cc1ccccc1)C(=O)N1CCC[C@H]1C(=O)N[C@@H](CC(=O)O)C(=O)NCC(=O)N[C@@H](CCCNC(=N)N)C(=O)N2 (HELM PEPTIDE1{C.F.P.D.G.R.C.W.K.S.K.P.P.I}$PEPTIDE1,PEPTIDE1,1:R3-7:R3|PEPTIDE1,PEPTIDE1,1:R1-14:R2$$$V2.0)	0.66
CC[C@H](C)[C@@H]1NC(=O)[C@@H]2CCCN2C(=O)[C@@H]2CCCN2C(=O)[C@H](CCCNC(=N)N)NC(=O)[C@H](CO)NC(=O)[C@H](CCCCN)NC(=O)[C@H](Cc2ccc(O)cc2)NC(=O)[C@@H]2CSSC[C@H](NC1=O)C(=O)N[C@@H](Cc1ccccc1)C(=O)N1CCC[C@H]1C(=O)N[C@@H](CC(N)=O)C(=O)NCC(=O)N[C@@H](CCCNC(=N)N)C(=O)N2 (HELM PEPTIDE1{C.F.P.N.G.R.C.Y.K.S.R.P.P.I}$PEPTIDE1,PEPTIDE1,1:R3-7:R3|PEPTIDE1,PEPTIDE1,1:R1-14:R2$$$V2.0)	1.2
CC[C@H](C)[C@@H]1NC(=O)[C@@H]2CCCN2C(=O)[C@@H]2CCCN2C(=O)[C@H](CCCNC(=N)N)NC(=O)[C@H](CO)NC(=O)[C@H](CCCCN)NC(=O)[C@H](Cc2ccc(O)cc2)NC(=O)[C@@H]2CSSC[C@H](NC1=O)C(=O)N[C@@H](Cc1ccccc1)C(=O)N1CCC[C@H]1C(=O)N[C@@H](CCC(=O)O)C(=O)NCC(=O)NC(CCCCNC(=N)N)C(=O)N2 (some centres not stated) (HELM PEPTIDE1{C.F.P.E.G.[N=C(N)NCCCCC(N[*:1])C(=O)[*:2]].C.Y.K.S.R.P.P.I}$PEPTIDE1,PEPTIDE1,1:R3-7:R3|PEPTIDE1,PEPTIDE1,1:R1-14:R2$$$V2.0)	1.1
